Results reported in PubChem BioAssay AID328 (DTP/NCI, 2004).
Values joined by “and” are separate entries in the source; they are usually repeats but may differ in a detail not shown here. Identical values can stand only once. Inconclusive results and toxic doses are left out.

System: BDF1 mice, P388 leukemia ip, median survival T/C
Test: NCI In Vivo Anticancer Drug Screen. Data for tumor model P388 Leukemia (intraperitoneal) in B6D2F1 (BDF1) mice
Details: endpoint: median survival time, higher = longer survival
Method in brief: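 Vehicle-dosed animals serve as the reference; survival of compound-dosed, tumour-implanted mice is divided by it.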

[1] = dose: 50.0 mg/kg/injection, schedule: Q01DX005 (ip), vehicle: saline with Tween-80
[2] = dose: 100.0 mg/kg/injection, schedule: Q01DX005 (ip), vehicle: saline with Tween-80
[3] = dose: 100.0 mg/kg/injection, schedule: Q04DX003 (ip), vehicle: Klucel (hydroxypropylcellulose) (HPC)
[4] = dose: 200.0 mg/kg/injection, schedule: Q04DX003 (ip), vehicle: Klucel (hydroxypropylcellulose) (HPC)
[5] = dose: 400.0 mg/kg/injection, schedule: Q04DX003 (ip), vehicle: Klucel (hydroxypropylcellulose) (HPC)
[6] = dose: 50.0 mg/kg/injection, schedule: Q01DX009 (ip), vehicle: saline
[7] = dose: 100.0 mg/kg/injection, schedule: Q04DX003 (ip), vehicle: saline
[8] = dose: 100.0 mg/kg/injection, schedule: Q01DX009 (ip), vehicle: saline with Tween-80
[9] = dose: 100.0 mg/kg/injection, schedule: Q04DX003 (ip), vehicle: saline with Tween-80
[10] = dose: 400.0 mg/kg/injection, schedule: Q01DX009 (ip), vehicle: saline with Tween-80
[11] = dose: 50.0 mg/kg/injection, schedule: Q01DX009 (ip), vehicle: saline with Tween-80
[12] = dose: 200.0 mg/kg/injection, schedule: Q01DX009 (ip), vehicle: saline with Tween-80
[13] = dose: 50.0 mg/kg/injection, schedule: Q01DX009 (ip), vehicle: water
[14] = dose: 100.0 mg/kg/injection, schedule: Q01DX009 (ip), vehicle: water
[15] = dose: 100.0 mg/kg/injection, schedule: Q04DX003 (ip), vehicle: water
[16] = dose: 200.0 mg/kg/injection, schedule: Q04DX003 (ip), vehicle: water
[17] = dose: 100.0 mg/kg/injection, schedule: Q01DX009 (ip), vehicle: Klucel (hydroxypropylcellulose) (HPC)
[18] = dose: 200.0 mg/kg/injection, schedule: Q01DX009 (ip), vehicle: Klucel (hydroxypropylcellulose) (HPC)
[19] = dose: 400.0 mg/kg/injection, schedule: Q01DX009 (ip), vehicle: Klucel (hydroxypropylcellulose) (HPC)
[20] = dose: 6.25 mg/kg/injection, schedule: Q01DX009 (ip), vehicle: saline with Tween-80
[21] = dose: 12.5 mg/kg/injection, schedule: Q01DX009 (ip), vehicle: saline with Tween-80
[22] = dose: 6.25 mg/kg/injection, schedule: Q01DX009 (ip), vehicle: saline
[23] = dose: 12.5 mg/kg/injection, schedule: Q01DX009 (ip), vehicle: saline
[24] = dose: 25.0 mg/kg/injection, schedule: Q01DX009 (ip), vehicle: saline with Tween-80
[25] = dose: 200.0 mg/kg/injection, schedule: Q04DX003 (ip), vehicle: saline
[26] = dose: 400.0 mg/kg/injection, schedule: Q04DX003 (ip), vehicle: saline
[27] = dose: 100.0 mg/kg/injection, schedule: Q01DX009 (ip), vehicle: saline
[28] = dose: 200.0 mg/kg/injection, schedule: Q01DX009 (ip), vehicle: saline

CC1(C)O[C@]2(C)CC[C@@H]1[C@H](O)[C@@H]2N1CCCC1
T/C [1]: 111 % of control | T/C [2]: 104 % of control

Cc1ccc(NC(=S)NC(=O)c2ccco2)cc1Cl
T/C [3]: 100 % of control | T/C [4]: 120 % of control | T/C [5]: 90 % of control

N=C(N)SCc1ccc(C(=O)Oc2ccc([N+](=O)[O-])cc2)cc1
T/C (dose: 25.0 mg/kg/injection, schedule: Q01DX009 (ip), vehicle: saline): 104 % of control | T/C [6]: 90 % of control | T/C (dose: 50.0 mg/kg/injection, schedule: Q04DX003 (ip), vehicle: saline): 110 % of control | T/C [7]: 110 % of control

[Cl][Pt+2]([Cl])([Cl])[Cl].[Na+].[S-]c1ncnc2nc[nH]c12.[S-]c1ncnc2nc[nH]c12
T/C [8]: 120 % of control | T/C [9]: 100 % of control | T/C (dose: 200.0 mg/kg/injection, schedule: Q04DX003 (ip), vehicle: saline with Tween-80): 100 % of control | T/C (dose: 300.0 mg/kg/injection, schedule: Q01DX009 (ip), vehicle: saline with Tween-80): 113 % of control | T/C [10]: 112 % of control | T/C (dose: 400.0 mg/kg/injection, schedule: Q04DX003 (ip), vehicle: saline with Tween-80): 122 % of control

CCCCCCCCCCC(=O)[O][Sn]([CH](C)C)([CH](C)C)[CH](C)C
T/C (dose: 12.5 mg/kg/injection, schedule: Q01DX009 (ip), vehicle: saline + Tween-80 + alcohol): 109 % of control | T/C (dose: 25.0 mg/kg/injection, schedule: Q01DX009 (ip), vehicle: saline + Tween-80 + alcohol): 119 % of control

O=C(COc1cccc(Cl)c1)Nc1cccnc1
T/C (dose: 100.0 mg/kg/injection, schedule: Q01DX001 (ip), vehicle: Klucel (hydroxypropylcellulose) (HPC)): 99 % of control | T/C (dose: 200.0 mg/kg/injection, schedule: Q01DX001 (ip), vehicle: Klucel (hydroxypropylcellulose) (HPC)): 99 % of control

CC(C)NC(=O)c1ccccc1S(=O)c1ccccc1C(=O)NC(C)C
T/C [11]: 104 % of control | T/C [8]: 100 % of control | T/C [12]: 108 % of control

CCOC(=O)CNCc1ccc(C)cc1
T/C [13]: 100 % of control | T/C [14]: 99 % of control | T/C [15]: 91 % of control | T/C (dose: 200.0 mg/kg/injection, schedule: Q01DX009 (ip), vehicle: water): 103 % of control | T/C [16]: 93 % of control | T/C (dose: 400.0 mg/kg/injection, schedule: Q01DX009 (ip), vehicle: water): 108 % of control | T/C (dose: 400.0 mg/kg/injection, schedule: Q04DX003 (ip), vehicle: water): 100 % of control

CCN(CC)CCCC(C)NS(=O)(=O)c1cccc2c(N(C)C)cccc12 (centres undefined)
T/C (dose: 6.25 mg/kg/injection, schedule: Q04DX003 (ip), vehicle: water): 97 % of control | T/C (dose: 12.5 mg/kg/injection, schedule: Q04DX003 (ip), vehicle: water): 108 % of control | T/C (dose: 25.0 mg/kg/injection, schedule: Q04DX003 (ip), vehicle: water): 118 % of control | T/C (dose: 50.0 mg/kg/injection, schedule: Q04DX003 (ip), vehicle: water): 118 % of control | T/C [15]: 115 % of control

O=S(=O)(N=C1C(Cl)=C(Cl)C(=NS(=O)(=O)c2ccccc2)C(Cl)=C1Cl)c1ccccc1
T/C [17]: 104 % of control | T/C [3]: 100 % of control | T/C [18]: 86 % of control | T/C [4]: 100 % of control | T/C [19]: 100 % of control | T/C [5]: 100 % of control

COc1cc(O)c2c(c1)Cc1cc(C)cc(O)c1C2=O
T/C [20]: 101 % of control | T/C [21]: 109 % of control

N#Cc1c(Nc2cccc(Cl)c2)sc(C(=O)c2cc3cc(Cl)ccc3o2)c1N
T/C [11]: 109 % of control | T/C [8]: 100 % of control | T/C [12]: 93 % of control

[O]=[Cr](=[O])([OH])[O][Cr](=[O])(=[O])[OH]
T/C [22]: 113 % of control | T/C [23]: 100 % of control

Nc1nc(=S)c2[nH]c(N=Nc3ccc(S(=O)(=O)Nc4ncccn4)cc3)nc2[nH]1
T/C (dose: 50.0 mg/kg/injection, schedule: Q01DX009 (ip), vehicle: Klucel (hydroxypropylcellulose) (HPC)): 118 % of control | T/C (dose: 50.0 mg/kg/injection, schedule: Q04DX003 (ip), vehicle: Klucel (hydroxypropylcellulose) (HPC)): 108 % of control | T/C [17]: 100 % of control | T/C [3]: 108 % of control | T/C [18]: 86 % of control | T/C [4]: 112 % of control

COc1ccccc1-n1c(=O)c(N=Nc2ccccc2)c(O)n(-c2ccccc2C)c1=S
T/C (dose: 100.0 mg/kg/injection, schedule: Q01DX001 (ip), vehicle: saline with Tween-80): 95 % of control | T/C (dose: 200.0 mg/kg/injection, schedule: Q01DX001 (ip), vehicle: saline with Tween-80): 95 % of control

CCN(CC)CCCNc1cccc2c(C)cc(OC)nc12
T/C [11]: 97 % of control | T/C [8]: 114 % of control

CCN(CC)S(=O)(=O)c1ccc(-c2cc(Cl)c3cc(S(=O)(=O)F)ccc3n2)cc1
T/C [8]: 110 % of control | T/C [12]: 90 % of control | T/C [10]: 100 % of control

CC(C)=CCC/C(C)=C\C=N\NS(=O)(=O)c1ccc([N+](=O)[O-])cc1
T/C [20]: 99 % of control | T/C [21]: 103 % of control | T/C [24]: 103 % of control

O=C1C=CC(=O)N1c1ccc(-c2nc3ccccc3o2)cc1
T/C [1]: 121 % of control | T/C [2]: 100 % of control

c1ccc(C2OC3(CCCCC3)C[N+]23CCCC3)cc1 (centres undefined)
T/C [24]: 95 % of control | T/C [11]: 113 % of control | T/C (dose: 50.0 mg/kg/injection, schedule: Q04DX003 (ip), vehicle: saline with Tween-80): 100 % of control | T/C [9]: 87 % of control

CCCCCCCCCCCCc1c(C(OC)OC)[nH]c(=S)[nH]c1=O
T/C [17]: 107 % of control | T/C [3]: 104 % of control | T/C [18]: 88 % of control | T/C [4]: 100 % of control | T/C [19]: 96 % of control | T/C [5]: 100 % of control

CCN1CCCC(Nc2nc(C(Cl)(Cl)Cl)nc3cc(Cl)ccc23)C1 (centres undefined)
T/C [24]: 109 % of control | T/C [11]: 113 % of control | T/C [8]: 104 % of control

CC([NH-])C(=O)O.CC([NH-])C(=O)O.CC([NH-])C(=O)O.[Co+3] (centres undefined)
T/C (dose: 25.0 mg/kg/injection, schedule: Q01DX009 (ip), vehicle: water): 103 % of control | T/C [13]: 92 % of control | T/C [14]: 92 % of control | T/C [15]: 116 % of control | T/C [16]: 90 % of control

CCOC(=O)C(N)C[S][Sn]([CH3])([CH3])[Cl] (centres undefined)
T/C [22]: 122 % of control | T/C [23]: 124 % of control

COC1=CC(=O)CC(C)C12Oc1c(Cl)c(OC)cc(OC)c1C2=O (centres undefined)
T/C [17]: 100 % of control | T/C [8]: 100 % of control | T/C [18]: 109 % of control | T/C [12]: 100 % of control | T/C [19]: 100 % of control | T/C [10]: 109 % of control

O=C(O)c1cc(I)cc(I)c1
T/C [7]: 100 % of control | T/C [25]: 100 % of control | T/C [26]: 160 % of control

N#CCCNCCC#N
T/C [6]: 91 % of control | T/C [27]: 108 % of control | T/C [7]: 105 % of control | T/C [28]: 104 % of control | T/C [25]: 105 % of control

COc1cc(NS(C)(=O)=O)ccc1Nc1c2ccccc2nc2c(C)cccc12
T/C (dose: 1.25 mg/kg/injection, schedule: Q01DX009 (ip), vehicle: Klucel (hydroxypropylcellulose) (HPC)): 107 % of control | T/C (dose: 2.5 mg/kg/injection, schedule: Q01DX009 (ip), vehicle: Klucel (hydroxypropylcellulose) (HPC)): 201 % of control | T/C (dose: 17.0 mg/kg/injection, schedule: Q04DX003 (ip), vehicle: gum acacia): 250 % of control | T/C (dose: 25.0 mg/kg/injection, schedule: Q04DX003 (ip), vehicle: gum acacia): 250 % of control

O=C(NC(CSC(c1ccccc1)(c1ccccc1)c1ccccc1)C(=O)O)OCc1ccccc1 (centres undefined)
T/C [6]: 100 % of control and 110 % of control | T/C [27]: 122 % of control | T/C [7]: 100 % of control | T/C [28]: 118 % of control | T/C [25]: 104 % of control | T/C [26]: 100 % of control
